Assay results taken from US5486596A, “Analogues of 8-D-homoarginine vasopressin” (Ceskoslovenska akademie ved, priority 1989, dated 1996).
Like-named read-outs stand apart in the source and are kept apart here. Bridge positions count the residues as written; N and C are the ends. Square brackets hold non-standard residues; d marks the D form. Peptide text beside a SMILES is read from it. dPhe(4-Et) = CCc1ccc(C[C@@H](N)C(=O)O)cc1; dPhe(4-Me) = Cc1ccc(C[C@@H](N)C(=O)O)cc1; Phe(4-Et) = CCc1ccc(C[C@H](N)C(=O)O)cc1; Phe(4-Me) = Cc1ccc(C[C@H](N)C(=O)O)cc1; d(hArg) = N=C(N)NCCCC[C@@H](N)C(=O)O; Mpa = O=C(O)CCS

Tests used:
[1] = tested on: rats; conditions: for Uterotonic activity: agonistic activity, rat
[2] = tested on: despinalized male rats; conditions: for Pressoric activity: despinalized male rats
[3] = tested on: rats; test: antidiuretic activity according to Burn, dDAVP as standard; format: in vivo; conditions: rat, relative to the standard dDAVP
Method: The biological activity of the peptides was tested on rats, namely: the uterotonic activity (agonistic and antagonistic) according to the Holton's method (Holtdon, J.: Brit. J. Pharmacol., 3,328, 1960) modified by Munsick (Endocrinology, 66, 451, 1960), the inhibitory activity being expressed as pA2 (Eggen et al.: J. Gen. Physiol., 56, 250, 1970), the pressoric activity was determined on despinalized male rats according to Krejci et al. (Brit. J. Pharm. Chemother., 30, 497, 1967) and the antidiuretic activity according to Burn (Burn et al.: Biol. Stand. Oxford Univ. Press, London, 1950) with [deaminol, D-arginine^8 ]vasopressin (dDAVP) used as the standard.

[4] = tested on: FVIII; test: FVIII activity in squirrel monkeys (blood coagulation); format: in vivo; conditions: for FVIII/%: squirrel monkeys, saline control = 100% (basal value)
Method: (§1) Compounds of the present invention ware evaluated for their ability to affect blood coagulation and fibrinolytic properties. The compounds were compared with [8-D-argenine]deamino vasopressin in squirrel monkeys. The findings of dissociated blood coagulation/fibrinolytic properties and the inhibitory properties are new and surprising properties for the series of vasopressin derived peptides.

[5] = tested on: tPA; test: tPA activity in squirrel monkeys (fibrinolytic properties); format: in vivo; conditions: for tPA/%: squirrel monkeys, saline control = 100% (basal value)
Method: as §1

[6] = inhibitory (antagonistic) activity expressed as pA2, rat
[7] = inhibitory activity expressed as pA2, despinalized male rats

COc1ccc(C[C@@H]2NC(=O)[C@@H](N)CSSC[C@@H](C(=O)N3CCC[C@H]3C(=O)N[C@H](CCCCNC(=N)N)C(=O)NCC(N)=O)NC(=O)[C@H](CC(N)=O)NC(=O)[C@H](CCC(N)=O)NC(=O)[C@H](Cc3ccccc3)NC2=O)cc1 [I, [2-O-methyltyrosine, 8-D-homoarginine]vasopressin]
Uterotonic activity, pA2 [1]: 7.7

Cc1ccc(C[C@@H]2NC(=O)CCSSC[C@@H](C(=O)N3CCC[C@H]3C(=O)N[C@H](CCCCNC(=N)N)C(=O)NCC(N)=O)NC(=O)[C@H](CC(N)=O)NC(=O)[C@H](CCC(N)=O)NC(=O)[C@H](Cc3ccccc3)NC2=O)cc1 [IX, [Mpr^1, L-p-MePhe^2, D--Har^8] vasopressin] ([Mpa][Phe(4-Me)]FQNCP[d(hArg)]G-NH2; disulfide 1-6)
Uterotonic activity, pA2 [1]: 8.38
Pressoric activity, pA2 ([2]; rat, in vivo): 6.2

COc1ccc(C[C@@H]2NC(=O)CCSSC[C@@H](C(=O)N3CCC[C@H]3C(=O)N[C@H](CCCCNC(=N)N)C(=O)NCC(N)=O)NC(=O)[C@H](CC(N)=O)NC(=O)[C@H](CCC(N)=O)NC(=O)[C@H](Cc3ccccc3)NC2=O)cc1 [VI, [1-mercaptopropionic acid, 2-O-methyltyrosine 8-D-homoarginine]vasopressin]
Uterotonic activity, pA2 [1]: 8.1

CCc1ccc(C[C@@H]2NC(=O)CCSSC[C@@H](C(=O)N3CCC[C@H]3C(=O)N[C@H](CCCCNC(=N)N)C(=O)NCC(N)=O)NC(=O)[C@H](CC(N)=O)NC(=O)[C@H](CCC(N)=O)NC(=O)[C@H](Cc3ccccc3)NC2=O)cc1 [VII, [Mpr^1, L-p-EtPhe^2, D--Har^8] vasopressin] ([Mpa][Phe(4-Et)]FQNCP[d(hArg)]G-NH2; disulfide 1-6)
Uterotonic activity, pA2 [1]: 8.0
Pressoric activity, pA2 ([2]; rat, in vivo): 6.2

CCc1ccc(C[C@H]2NC(=O)CCSSC[C@@H](C(=O)N3CCC[C@H]3C(=O)N[C@H](CCCCNC(=N)N)C(=O)NCC(N)=O)NC(=O)[C@H](CC(N)=O)NC(=O)[C@H](CCC(N)=O)NC(=O)[C@H](Cc3ccccc3)NC2=O)cc1 [VIII, [Mpr^1, D-p-EtPhe^2, D--Har^8] vasopressin] ([Mpa][dPhe(4-Et)]FQNCP[d(hArg)]G-NH2; disulfide 1-6)
Uterotonic activity, pA2 [1]: 8.63
Pressoric activity, pA2 ([2]; rat, in vivo): 6.35

Cc1ccc(C[C@H]2NC(=O)CCSSC[C@@H](C(=O)N3CCC[C@H]3C(=O)N[C@H](CCCCNC(=N)N)C(=O)NCC(N)=O)NC(=O)[C@H](CC(N)=O)NC(=O)[C@H](CCC(N)=O)NC(=O)[C@H](Cc3ccccc3)NC2=O)cc1 [X, [Mpr^1, D-p-MePhe^2, D--Har^8] vasopressin] ([Mpa][dPhe(4-Me)]FQNCP[d(hArg)]G-NH2; disulfide 1-6)
Uterotonic activity, pA2 [1]: 8.68

[2-p-ethyl-D-phenylalanine, 8-D-homoarginine]vasopressin [III]
Uterotonic activity, pA2 [1, 6]: 8.15
Pressoric activity, pA2 [2, 7]: 6.5
Antidiuretic activity [3]: < 0.1 % dDAVP

[2-p-ethyl-L-phenylalanine, 8-D-homoarginine]vasopressin [II]
Uterotonic activity, pA2 [1, 6]: 7.40
Pressoric activity, pA2 [2, 7]: 6.5
Antidiuretic activity [3]: < 0.1 % dDAVP

[2-p-methyl-D-phenylalanine, 8-D-homoarginine]vasopressin
Uterotonic activity, pA2 [1, 6]: 6.85
FVIII/% [4]: 55%
Pressoric activity [2]: 0.04 IU/mg
Antidiuretic activity [3]: < 0.1 % dDAVP
tPA/% [5]: 65%

[2-p-methyl-L-phenylalanine, 8-D-homoarginine]vasopressin [IV]
Uterotonic activity, pA2 [1, 6]: 6.85
FVIII/% [4]: 85%
Pressoric activity [2]: 0.04 IU/mg
Antidiuretic activity [3]: < 0.1 % dDAVP
tPA/% [5]: 77%

[8-D-arginine] deamino vasopressin
effect on expression of Factor VIII, in words ([4]; monkey, in vivo): increase
FVIII/% [4]: 149%
effect on expression of tPA, in words ([5]; monkey, in vivo): increase
tPA/% [5]: 138.9%

[D--Har^8 ] vasopressin [reference compound]
Uterotonic activity [1]: 0.9 IU/mg
Antidiuretic activity [3]: ~ 1 % dDAVP

[Mpr^1, D--Har^8 ] vasopressin [reference compound]
Uterotonic activity [1]: 0.8 IU/mg
FVIII/% [4]: 127%
Pressoric activity [2]: 0.28 IU/mg
Antidiuretic activity [3]: ~ 5 % dDAVP
tPA/% [5]: 88%
